The text below walks through data of patent US20150315188A1, “COMPOUNDS AND METHODS FOR TREATMENT OF HYPERTENSION” (MEDIVATION TECHNOLOGIES, INC., priority 2012, published 2015).

Assay [1] has as its target T1, rat adrenergic α1B receptor (Rattus norvegicus, UniProt P15823).
T1 construct: rat adrenergic α1B receptor obtained from Wistar Rat liver; from tissue; host or cells: Wistar rat liver
T1 sequence (P15823 1-515): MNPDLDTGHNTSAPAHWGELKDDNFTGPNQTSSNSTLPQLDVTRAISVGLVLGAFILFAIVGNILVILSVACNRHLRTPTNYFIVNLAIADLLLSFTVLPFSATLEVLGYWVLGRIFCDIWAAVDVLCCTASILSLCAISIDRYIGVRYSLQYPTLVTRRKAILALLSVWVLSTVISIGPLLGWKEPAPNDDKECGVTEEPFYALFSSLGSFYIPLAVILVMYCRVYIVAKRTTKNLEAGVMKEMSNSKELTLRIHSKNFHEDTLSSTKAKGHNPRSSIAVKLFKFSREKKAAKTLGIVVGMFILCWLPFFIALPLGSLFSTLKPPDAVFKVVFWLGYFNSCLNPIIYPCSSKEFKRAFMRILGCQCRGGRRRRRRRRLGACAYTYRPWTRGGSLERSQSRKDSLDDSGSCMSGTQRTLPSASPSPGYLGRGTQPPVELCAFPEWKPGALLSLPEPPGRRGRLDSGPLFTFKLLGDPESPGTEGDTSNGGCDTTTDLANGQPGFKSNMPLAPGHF
The assay is described as follows: Radioligand binding, adrenergic α1B (Protocol Group A). Particulars: 0.1 μM compound, [3H]Prazosin; for percent inhibition of specific binding, Adrenergic α1B: 0.1 µM; for inhibition at 0.1 µM: read-out: percent inhibition of specific binding, Adrenergic α1B. The method, then: To evaluate in radioligand binding assays the activity of compounds of the invention, rat adrenergic α1B receptor obtained from Wistar Rat liver (Garcia-S'ainz, J. et al, Biochem. Biophys. Res. Commun. 186:760, 1992; Michel, A. et al, Br. J. Pharmacol. 98:883, 1989) in a modified Tris-HCl buffer (50 mM Tris-HCl buffer, pH 7.4, 0.5 mM EDTA) was used. Compounds of the invention were incubated with 0.25 nM [^3H]Prazosin for 60 min at 25° C. Non-specific binding was estimated in the presence of 10 μM phentolamine. Receptor proteins were filtered and washed, the filters were then counted to determine [^3H]Prazosin specifically bound. Compounds were screened at 1 μM or lower, using 1% DMSO as vehicle. Compounds of the invention were tested in this biochemical assay and percent inhibition of specific binding was determined. Biochemical assay results are presented as the percent inhibition of specific binding in Table B1a.

For assay [2], the target named is T2, Human adrenergic α2B receptor (Homo sapiens, UniProt P18089).
T2 sequence (P18089 1-450): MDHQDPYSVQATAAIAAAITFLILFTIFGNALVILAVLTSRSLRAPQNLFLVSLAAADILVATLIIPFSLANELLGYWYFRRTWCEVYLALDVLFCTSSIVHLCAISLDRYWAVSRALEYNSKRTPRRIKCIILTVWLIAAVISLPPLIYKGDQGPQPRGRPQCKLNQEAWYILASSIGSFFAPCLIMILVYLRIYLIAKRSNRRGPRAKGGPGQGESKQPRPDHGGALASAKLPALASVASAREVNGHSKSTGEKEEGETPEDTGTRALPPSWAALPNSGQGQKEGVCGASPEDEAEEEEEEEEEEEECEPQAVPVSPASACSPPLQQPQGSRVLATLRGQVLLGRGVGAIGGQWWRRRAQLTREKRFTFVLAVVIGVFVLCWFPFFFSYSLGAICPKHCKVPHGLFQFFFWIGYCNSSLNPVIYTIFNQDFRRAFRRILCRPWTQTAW
Kind of assay: Radioligand binding, adrenergic α2B (Protocol Group A). Further details: expressed in transfected cells; host or cells: CHO-K1. Conditions: 0.03 μM compound, [3H]Rauwolscine; for percent inhibition of specific binding, Adrenergic α2B: 0.03 µM; for inhibition at 0.03 µM: read-out: percent inhibition of specific binding, Adrenergic α2B. Here is the method:
To evaluate in radioligand binding assays the activity of compounds of the invention, human recombinant adrenergic α2B receptor expressed in Chinese hamster ovary (CHO) K1 cells (Uhlen, S. et al, Eur. J. Pharmacol. 343(1):93, 1998) in a modified Tris-HCl buffer (50 mM Tris-HCl, pH 7.4, 12.5 mM MgCl2, 1 mM EDTA, 0.2% BSA) was used. Compounds of the invention were incubated with 2.5 nM [3H]Rauwolscine for 60 min at 25° C. Non-specific binding was estimated in the presence of 10 μM Prazosin. Receptor proteins were filtered and washed, the filters were then counted to determine [3H]Rauwolscine specifically bound. Compounds were screened at 1 μM or lower, using 1% DMSO as vehicle. Compounds of the invention were tested in this biochemical assay and percent inhibition of specific binding was determined. Biochemical assay results are presented as the percent inhibition of specific binding in Table B1a.

In assay [3] the target is T3, Human adrenergic α2A receptor (Homo sapiens, UniProt P08913).
T3 sequence (P08913 1-465): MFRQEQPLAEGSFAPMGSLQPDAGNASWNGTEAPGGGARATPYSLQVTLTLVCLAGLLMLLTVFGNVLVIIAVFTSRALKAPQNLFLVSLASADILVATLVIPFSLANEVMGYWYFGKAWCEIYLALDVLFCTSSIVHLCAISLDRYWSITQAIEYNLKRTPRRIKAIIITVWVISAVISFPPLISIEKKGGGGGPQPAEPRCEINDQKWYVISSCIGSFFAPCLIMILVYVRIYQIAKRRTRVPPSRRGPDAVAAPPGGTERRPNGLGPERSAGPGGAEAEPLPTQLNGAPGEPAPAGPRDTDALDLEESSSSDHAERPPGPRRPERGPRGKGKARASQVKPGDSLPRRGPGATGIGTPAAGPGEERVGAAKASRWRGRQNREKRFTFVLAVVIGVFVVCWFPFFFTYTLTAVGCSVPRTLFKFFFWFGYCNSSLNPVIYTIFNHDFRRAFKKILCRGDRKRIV
Kind of assay: Radioligand binding, adrenergic α2A (Protocol Group A). Also on record: expressed in transfected cells; host or cells: insect Sf9 cells. Particulars: 0.1 μM compound; for percent inhibition of specific binding, Adrenergic α2A: [3H]MK-912, 0.1 µM; for inhibition at 0.1 µM: [3H]MK-912, read-out: percent inhibition of specific binding, Adrenergic α2A. The method, then:
To evaluate in radioligand binding assays the activity of compounds of the invention, human recombinant adrenergic α2A receptor expressed in insect Sf9 cells (Uhlen, S. et al, J. Pharmacol. Exp. Ther. 271:1558, 1994) in a modified Tris-HCl buffer (50 mM Tris-HCl, pH 7.4, 12.5 mM MgCl2, 2 mM EDTA) was used. Compounds of invention were incubated with 1 nM [^3H]MK-912 for 60 min at 25° C. MK912 is (2S-trans)-1,3,4,5′,6,6′,7,12b-octahydro-1′,3′-dimethyl-spiro[2H-benzofuro[2,3-a]quinolizine-2,4′(1′H)-pyrimidin]-2′(3′H)-one hydrochloride. Non-specific binding was estimated in the presence of 10 μM WB-4101 (2-(2,6-Dimethoxyphenoxyethyl)aminomethyl-1,4-benzodioxane hydrochloride). Receptor proteins were filtered and washed, the filters were then counted to determine [^3H]MK-912 specifically bound. Compounds were screened at 1 μM or lower, using 1% DMSO as vehicle. Compounds of the invention were tested in this biochemical assay and percent inhibition of specific binding was determined. Biochemical assay results are presented as the percent inhibition of specific binding in Table B1a.

`Cc1ccc(C(F)Cn2c3c(c4cccnc42)C2CCCN2CC3)cn1` (single isomer, unassigned) [10b]: the “percent inhibition of specific binding, Adrenergic α1B” value (from here on “percent inhibition … Adrenergic α1B”) in assay [1] is reported as −5%. In assay [2], the “percent inhibition of specific binding, Adrenergic α2B” value (from here on “percent inhibition … Adrenergic α2B”) is on record as 16%. Besides, the “percent inhibition of specific binding, Adrenergic α2A” value (from here on “percent inhibition … Adrenergic α2A”) in assay [3] is on record as −1%.
Take `Cc1ccc2c(c1)c1c(n2CCc2cncc(S(C)(=O)=O)c2)CCN(C)C1` [Compound No. 1, 2,8-dimethyl-5-(2-(5-(methylsulfonyl)pyridin-3-yl)ethyl)-2,3,4,5-tetrahydro-1H-pyrido[4,3-b]indole]: the figures for the inhibition at 0.1 µM in assay [1] and in assay [3] were 18% and 3%, respectively. The inhibition (as a rule, the change of the read-out against control, counted positive when it falls) at 0.03 µM in assay [2] worked out at 64%.
For the molecule `Cc1ccc2c(c1)c1c(n2CC(OC(N)=O)c2ccncc2)CCN(C)C1` (stereo not drawn) [compound 8, 2-(2,8-dimethyl-3,4-dihydro-1H-pyrido[4,3-b]indol-5 (2H)-yl)-1-(pyridin-4-yl)ethyl carbamate], the inhibition at 0.1 µM came out at 1% in assay [1] and 11% in assay [3]. Further, the inhibition at 0.03 µM in assay [2] was found to be 42%.
With `c1cncc(CCn2c3c(c4ccccc42)C2CCCN2CC3)c1` (single isomer, unassigned) [2a], in assay [1], the “percent inhibition … Adrenergic α1B” value is on record as 28%. Moreover, the “percent inhibition … Adrenergic α2B” value in assay [2] is recorded as 102%. The “percent inhibition … Adrenergic α2A” value in assay [3] was 31%.
For `c1cncc(CCn2c3c(c4ccccc42)C2CCCN2CC3)c1` (single isomer, unassigned) [2b] the same measures were 4%, 1% and 13%.
As to `Cc1ccc2c(c1)c1c(n2CC(OC(=O)N2CCCC2)c2ccncc2)CCN(C)C1` (single isomer, unassigned) [4a], in assay [1], the “percent inhibition … Adrenergic α1B” value came to 11%. The “percent inhibition … Adrenergic α2B” value in assay [2] amounted to 39%. Also, in assay [3], the inhibition at 0.1 µM was determined as 21%.
Take `Cc1ccc2c(c1)c1c(n2CC(OCCCC(=O)O)c2ccncc2)CCN(C)C1` (stereo not drawn) [compound 3, 4-(2-(2,8-dimethyl-3,4-dihydro-1H-pyrido[4,3-b]indol-5 (2H)-yl)-1-(pyridin-4-yl)ethoxy)butanoic acid]: the inhibition at 0.1 µM in assay [1] is -5%; in assay [3], 5%. Besides, the inhibition at 0.03 µM in assay [2] was found to be 7%.
For the molecule `Cc1ccc(C(F)Cn2c3c(c4cccnc42)C2CCCN2CC3)cn1` (single isomer, unassigned) [10a], the “percent inhibition … Adrenergic α1B” value in assay [1] was −3%. In addition, the “percent inhibition … Adrenergic α2B” value in assay [2] is 4%. For the same molecule, the “percent inhibition … Adrenergic α2A” value in assay [3] came to 0%.
As to `Cc1ccc2c(c1)c1c(n2CC(OC(=O)N2CCCC2)c2ccncc2)CCN(C)C1` (stereo not drawn) [compound 4, 2-(2,8-dimethyl-3,4-dihydro-1H-pyrido[4,3-b]indol-5(2H)-yl)-1-(pyridin-4-yl)ethyl pyrrolidine-1-carboxylate], the “percent inhibition … Adrenergic α1B” value in assay [1] came to 27%. In addition, the “percent inhibition … Adrenergic α2B” value in assay [2] came out at 78%. For the same molecule, in assay [3], the “percent inhibition … Adrenergic α2A” value is recorded as 33%.
`Cc1ccc2c(c1)c1c(n2CC(C)(O)c2ccc(F)nc2)CCN2CCCC12` (stereo not drawn) [6b]: the inhibition at 0.1 µM was 61% in assay [1] and 29% in assay [3]. Further, the inhibition at 0.03 µM in assay [2] came out at 93%.
In the same order, the values of `Cc1ccc2c(c1)c1c(n2C(CC(C)(C)C)C(=O)c2ccncc2)CCN(C)C1` (stereo not drawn) [compound 9, 2-(2,8-dimethyl-3,4-dihydro-1H-pyrido[4,3-b]indol-5 (2H)-yl)-4,4-dimethyl-1-(pyridin-4-yl)pentan-1-one] are 77%, 85% and 107%.
As for `Cc1ccc2c(c1)c1c(n2CC(OC(=O)N2CCN(C)CC2)c2ccncc2)CCN(C)C1` (stereo not drawn) [compound 5, 2-(2,8-dimethyl-3,4-dihydro-1H-pyrido[4,3-b]indol-5 (2H)-yl)-1-(pyridin-4-yl)ethyl 4-methylpiperazine-1-carboxylate], the inhibition at 0.1 µM amounted to 5% in assay [1] and 10% in assay [3]. Further, the inhibition at 0.03 µM in assay [2] worked out at 13%.
In the same order, the values of `Cc1ccc2c(c1)c1c(n2/C=C/c2ccncc2)CCN2CCCC12` (stereo not drawn) [Compound No. 7, (E)-10-methyl-7-(2-(pyridin-4-yl)vinyl)-2,3,5,6,7,11c-hexahydro-1H-indolizino[7,8-b]indole] are 99%, 93% and 108%.
